Non-standard residues stand in square brackets, D forms with d. Residues, ends and D or L forms follow the SMILES beside them. Primed or numbered codes have the meaning given here. No end group written: not given here. *: point of attachment. Pra′ = its azide, alkyne or alkene has reacted where a group follows in round brackets; methacrylate = methacrylate-modified cysteine (mC); pT = C[C@@H](OP(=O)(O)O)[C@H](N)C(=O)O; mC = methacrylate-modified cysteine; pS = N[C@@H](COP(=O)(O)O)C(=O)O; BODIPY = not defined here; Dab = NCC[C@H](N)C(=O)O; X1 = C=C(C*)C(=O)OCC; ClAc = O=C(CCl)*
What was measured:
[1] = Peptide stability in buffer and intrinsic reactivity with lysine and cysteine; assay type: physicochemical; details: room temperature, timescale of days
Protocol: The intrinsic reactivity and stability of the active peptides with their labeling rates were compared). Their stability was tested in buffer and in the presence of lysine and cysteine at room temperature. […] The reactivity towards cysteine was much higher—the peptides reacted with cysteine to generate both Michael adducts as well as substitution products in which the thiol peptide is released. Peptides SEQ ID 3, SEQ ID 8 and SEQ ID 11 were more than >50% reacted within 2.5 hours.
The LS/MS runs for peptides were performed using the same instrument with a C18-CSH column (300 Å, 1.7 μm, […]) using a gradient starting from 1% B for 1 minute, rising to 95% B in 4.5 minutes, holding at 95% B for 0.75 minutes, then decreasing to 1% B in 0.75 minutes and holding at 1% B for 1 minute. MS data were collected at a range of 80-2500 m/z, using identical conditions for ionization as with the protein.

14-3-3σ [2] = target: T1, 14-3-3σ (Homo sapiens, UniProt P31947); assay: Covalent labeling of 14-3-3σ by peptides, intact protein LC/MS; details: for labeling of 14-3-3σ within 5 hours / labeling of 14-3-3σ after 48 hours / covalent labeling of 14-3-3σ with the expected adduct mass: 14-3-3σ 2 μM; for labeling of 14-3-3σ within 5 hours: time course; for labeling of 14-3-3σ after 48 hours: room temperature; for covalent labeling of 14-3-3σ with the expected adduct mass: peptide 200 μM, 4° C. overnight
T1 sequence (P31947 with tags, fused parts or gaps): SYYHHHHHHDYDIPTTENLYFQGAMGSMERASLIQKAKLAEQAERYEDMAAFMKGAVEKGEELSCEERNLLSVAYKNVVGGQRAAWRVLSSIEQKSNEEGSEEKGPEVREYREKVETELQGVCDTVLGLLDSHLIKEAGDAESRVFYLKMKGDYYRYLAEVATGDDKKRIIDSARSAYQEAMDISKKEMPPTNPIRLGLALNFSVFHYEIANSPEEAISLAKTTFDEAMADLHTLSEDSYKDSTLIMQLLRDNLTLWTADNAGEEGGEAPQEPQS

14-3-3 isoforms = assay: Binding to 14-3-3 isoforms using LC-MS qTOF; details: protein:peptide 1:5, overnight, 4° C.
Protocol: The 14-3-3 isoforms were buffer-exchanged into complexation buffer (20 mM HEPES pH 7.5, 100 mM NaCl, 10 mM MgCl2) and mixed with the peptides (3/8) in a 1:5 molar stoichiometry (protein:peptide) at a final concentration of 10 mg/mL. The complexes were buffer-exchanged into milliQ+0.1% formic acid after overnight incubation at 4° C.
UPLC-QToF-MS analysis was performed on a Waters (Milford, MA, USA) Acquity I-Class UPLC system coupled to a Waters Xevo G2 quadrupole time-of-flight (QToF) mass spectrometer. The devices were controlled by MassLynx Software (version 4.1, Waters, MA, USA). Full scan in positive electrospray ionization (ESI+) mode was used as MS acquisition mode with an acquisition range from 200-2000 m/z. […] The samples concentration were 0.01-0.1 mg/mL, and the injection volume was 1 μL. Deconvolution was performed by the MaxEnt1 option of the MassLynx software. Errors were calculated using the MaxEnt Errors option.

14-3-3σ [3] = target: T1, 14-3-3σ; assay: Fluorescence polarization competition/binding experiment; details: 14-3-3σ 0.25 μM, fluorescent peptide 5 nM, 27° C., immediately after mixing
[4] = Differential scanning fluorimetry for Im-E9 complexes; assay type: physicochemical; details: SYPRO Orange, protein 40 μM
Protocol: SYPRO Orange (X5000 stock) was diluted 200-fold in buffer, and from this stock 13 μl were added to each sample, diluting the protein to 40 μM. Each sample were split into 3 technical replicates and heated in a thermal cycler over 1.5 hours to 95° C. while measuring the fluorescence.

[5] = target: T2, human 14-3-3σ with an N-terminal His6-tag (SEQ ID 28) (human); assay: intact protein LC/MS; 200 µM peptide, 2 µM 14-3-3σ, 4° C. overnight
T2 chain: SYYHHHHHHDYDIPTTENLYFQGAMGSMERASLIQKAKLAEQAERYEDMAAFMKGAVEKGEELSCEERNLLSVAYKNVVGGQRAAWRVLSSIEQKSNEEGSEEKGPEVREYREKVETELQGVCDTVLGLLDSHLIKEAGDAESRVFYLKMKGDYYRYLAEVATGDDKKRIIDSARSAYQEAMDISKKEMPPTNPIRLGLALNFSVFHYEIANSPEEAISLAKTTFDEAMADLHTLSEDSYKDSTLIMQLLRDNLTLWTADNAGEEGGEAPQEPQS

[6] = target: T2, human 14-3-3σ with an N-terminal …; assay: 2 µM 14-3-3σ with 5 µM peptide, 48 hours at room temperature
[7] = target: T2, human 14-3-3σ with an N-terminal …; assay: time course, intact protein LC/MS; 5 µM peptide, 2 µM 14-3-3σ
[8] = target: T2, human 14-3-3σ with an N-terminal …; assay: not told how it was measured; probe of the fluorescence polarization experiment

Molecule: C=C(CSC[C@H](NC(=O)[C@H](COP(=O)(O)O)NC(=O)[C@H](C)NC(=O)[C@H](CO)NC(=O)[C@H](CCCNC(=N)N)NC(C)=O)C(=O)N1CCC[C@H]1C(=O)N[C@@H](CO)C(=O)N[C@@H](CC(C)C)C(N)=O)C(=O)OCC [SEQ ID 3, Ac-RSApSmCPSL-NH2] (Ac-RSA[pS]C(X1)PSL-NH2)
- stability in buffer over days [1]: remained unmodified even after 3 days
- labeling of 14-3-3σ within 5 hours (14-3-3σ [2]; peptide 5 μM, 25° C.): 60%
- labeling of 14-3-3σ after 48 hours (14-3-3σ [2]; peptide 5 μM): ~ 75%
- covalent labeling of 14-3-3σ with the expected adduct mass (14-3-3σ [2]): 51%

Molecule: C=C(CSC[C@H](NC(=O)[C@H](COP(=O)(O)O)NC(=O)[C@H](Cc1c[nH]cn1)NC(=O)[C@H](C)NC(=O)[C@H](CCCNC(=N)N)NC(C)=O)C(=O)N1CCC[C@H]1C(=O)N[C@@H](C)C(=O)N[C@@H](CO)C(=O)N[C@@H](CC(C)C)C(=O)N[C@@H](CCC(N)=O)C(N)=O)C(=O)OCC [SEQ ID 8, Ac-RAHpSmCPASLQ-NH2] (Ac-RAH[pS]C(X1)PASLQ-NH2)
- stability in buffer over days [1]: formed a new product with the same mass as the original peptide
- labeling of 14-3-3σ within 5 hours (14-3-3σ [2]; peptide 5 μM, 25° C.): 80%
- labeling of 14-3-3σ after 48 hours (14-3-3σ [2]; peptide 5 μM): 90%
- covalent labeling of 14-3-3σ with the expected adduct mass (14-3-3σ [2]): 35%

Molecule: C=C(CSC[C@H](NC(=O)[C@H](CO)NC(=O)[C@H](C)NC(=O)[C@@H]1CCCN1C(=O)[C@H](CO)NC(=O)[C@H](COP(=O)(O)O)NC(=O)[C@H](Cc1c[nH]cn1)NC(=O)[C@H](C)NC(=O)[C@H](CCCNC(=N)N)NC(C)=O)C(=O)N[C@@H](CCC(N)=O)C(N)=O)C(=O)OCC [SEQ ID 11, Ac-RAHpSSPASmCQ-NH2] (Ac-RAH[pS]SPASC(X1)Q-NH2)
- stability in buffer over days [1]: formed a new product with the same mass as the original peptide
- labeling of 14-3-3σ after 48 hours (14-3-3σ [2]; peptide 5 μM): 100%
- free (non-labelled) 14-3-3σ remaining within 2.5 hours (14-3-3σ [2]; peptide 5 μM, 25° C.): less than 5%
- covalent labeling of 14-3-3σ with the expected adduct mass (14-3-3σ [2]): 11%

Molecule: Ac-RAHpSSPASLX-NH2 (Ac-RAH[pS]SPASL[Dab](ClAc)-NH2) [SEQ ID 12, chloroacetamide warhead peptide that reacts with 14-3-3σ via Cys38, used as a positive control]
- labeling of 14-3-3 isoforms (14-3-3 isoforms): labeled only the sigma isoform

Molecule: Ac-RAHpSSPAmCLQ-NH2 (Ac-RAH[pS]SPAC(methacrylate)LQ-NH2) [SEQ ID 10]
- displacement of the fluorescent binder at 5 μM (14-3-3σ [3]; peptide 5 μM): had sufficient affinity to displace the fluorescent binder

Molecule: Ac-SHpTLmCS-NH2 (Ac-SH[pT]LC(methacrylate)S-NH2) [SEQ ID 2]
- displacement of the fluorescent binder at 200 μM (14-3-3σ [3]; peptide 200 μM): all peptides except peptide SEQ ID 2 displaced the binder

Molecule: Im9: immunity protein, inhibitory partner of the E9 nuclease, in its free (unmodified) form
- unfolding (melting) temperature [4]: around 50 °C

Molecule: Ac-RAH[pS]SPASC(methacrylate)Q-NH2 [Peptide SEQ ID 11, Ac-RAHpSSPASmCQ-NH2]
- covalent labeling (%) [5]: 11%
- covalent labeling (%) [6]: 100%

Molecule: Ac-RSA[pS][mC]PSL-NH2 [Peptide SEQ ID 3, Ac-RSApSmCPSL-NH2]
- covalent labeling (%) [5]: 51%
- covalent labeling (%) [6]: ~75%
- fold increase of the rate of labeling at 37° C. against 25° C. [7]: ~4 fold

Molecule: Ac-RAH[pS][mC]PASLQ-NH2 [Peptide SEQ ID 8, Ac-RAHpSmCPASLQ-NH2]
- covalent labeling (%) [5]: 35%
- covalent labeling (%) [6]: 90%
- fold increase of the rate of labeling at 37° C. against 25° C. [7]: ~4 fold

Molecule: [Pra′](BODIPY)RAH[pS]PASL[Dab] (not fully specified (N-terminus, C-terminus); reading uncertain) [BODIPY-labeled noncovalent binder for 14-3-3σ (SEQ ID 38)]
- Kd [8]: ~100 nM

Molecule: Ac-SH[pT][mC]PS-NH2 [Peptide SEQ ID 1, Ac-SHpTmCPS-NH2]
- covalent labeling (%) [5]: ~10%
